Assay: CNS Vital Signs (CNSVS) computerized cognition battery
Format: in vivo, human
Settings: for Cognitive flexibility domain score, Difference (TAK-063 LS mean - placebo LS mean, change from baseline) / Composite memory domain score, Difference (TAK-063 LS mean - placebo LS mean, change from baseline) / Executive functioning domain score, Difference (TAK-063 LS mean - placebo LS mean, change from baseline) / Processing speed domain score, Difference (TAK-063 LS mean - placebo LS mean, change from baseline) / Psychomotor speed domain score, Difference (TAK-063 LS mean - placebo LS mean, change from baseline) / Reaction time domain score, Difference (TAK-063 LS mean - placebo LS mean, change from baseline) / Reasoning domain score, Difference (TAK-063 LS mean - placebo LS mean, change from baseline) / Sustained attention domain score, Difference (TAK-063 LS mean - placebo LS mean, change from baseline) / Verbal memory domain score, Difference (TAK-063 LS mean - placebo LS mean, change from baseline) / Visual memory domain score, Difference (TAK-063 LS mean - placebo LS mean, change from baseline) / Working memory domain score, Difference (TAK-063 LS mean - placebo LS mean, change from baseline): 6 h postdose, fasting
Experimental: Cognitive flexibility, attention, executive function, memory, reasoning, motor control, psychomotor speed, reaction time, and information processing speed were assessed predose and at 2 and 6 h following TAK-063 treatment using the CNSVS computerized cognition battery. The CNSVS cognition battery is a well-validated, sensitive measure and included the following tests: verbal and visual memory (VBM and VIM) tests, finger-tapping test, symbol digit coding test, Stroop test, shifting attention test, the nonverbal reasoning test, and the 4-part continuous performance test (Gualtieri and Johnson [2006]). Standardized domain scores for cognitive flexibility, composite memory, executive functioning, processing speed, psychomotor speed, reaction time, reasoning, sustained attention, verbal memory, visual memory, and working memory were reported. In all domains, a decrease in the standardized domain score is indicative of impairment.
All statistical analyses were generated using SAS Version 9.2 (SAS, Cary, NC, USA). The PK parameters were derived using non-compartmental methods with WinNonlin Enterprise Version 6.3 (Pharsight Corp., Mountain View, CA, USA). Frequency or descriptive statistics were used for summary of data. Where indicated, percent coefficient of variation was included in the summary of continuous data. All statistical tests were 2-tailed at α = 0.05 level for significance unless otherwise stated. A power model was used to evaluate dose proportionality by race for fasted subjects; in the event of no observed race effect, dose proportionality was assessed for all subjects. To evaluate the food effect, a paired t test was performed on T max and natural log-transformed C max, and AUCs. An ANCOVA model with baseline scores and race as covariates was used to assess the effects of TAK-063 on CNSVS domain scores.

COc1cn(-c2ccc(-n3cccn3)cc2F)nc(-c2ccnn2-c2ccccc2)c1=O [TAK-063]
Cognitive flexibility domain score, Difference (TAK-063 LS mean - placebo LS mean, change from baseline) (3 mg): 2.9
Composite memory domain score, Difference (TAK-063 LS mean - placebo LS mean, change from baseline) (3 mg): -1.4
Executive functioning domain score, Difference (TAK-063 LS mean - placebo LS mean, change from baseline) (3 mg): 2.9
Processing speed domain score, Difference (TAK-063 LS mean - placebo LS mean, change from baseline) (3 mg): 2.5
Psychomotor speed domain score, Difference (TAK-063 LS mean - placebo LS mean, change from baseline) (3 mg): -1.8
Reaction time domain score, Difference (TAK-063 LS mean - placebo LS mean, change from baseline) (3 mg): 1.5
Reasoning domain score, Difference (TAK-063 LS mean - placebo LS mean, change from baseline) (3 mg): 6.9
Sustained attention domain score, Difference (TAK-063 LS mean - placebo LS mean, change from baseline) (3 mg): 15.0
Verbal memory domain score, Difference (TAK-063 LS mean - placebo LS mean, change from baseline) (3 mg): -4.8
Visual memory domain score, Difference (TAK-063 LS mean - placebo LS mean, change from baseline) (3 mg): 4.5
Working memory domain score, Difference (TAK-063 LS mean - placebo LS mean, change from baseline) (3 mg): 9.9
Cognitive flexibility domain score, Difference (TAK-063 LS mean - placebo LS mean, change from baseline) (10 mg): -10.0
Composite memory domain score, Difference (TAK-063 LS mean - placebo LS mean, change from baseline) (10 mg): -1.9
Executive functioning domain score, Difference (TAK-063 LS mean - placebo LS mean, change from baseline) (10 mg): -10.0
Processing speed domain score, Difference (TAK-063 LS mean - placebo LS mean, change from baseline) (10 mg): 0.2
Psychomotor speed domain score, Difference (TAK-063 LS mean - placebo LS mean, change from baseline) (10 mg): -9.6
Reaction time domain score, Difference (TAK-063 LS mean - placebo LS mean, change from baseline) (10 mg): -5.6
Reasoning domain score, Difference (TAK-063 LS mean - placebo LS mean, change from baseline) (10 mg): 2.2
Sustained attention domain score, Difference (TAK-063 LS mean - placebo LS mean, change from baseline) (10 mg): 3.6
Verbal memory domain score, Difference (TAK-063 LS mean - placebo LS mean, change from baseline) (10 mg): 2.9
Visual memory domain score, Difference (TAK-063 LS mean - placebo LS mean, change from baseline) (10 mg): -4.4
Working memory domain score, Difference (TAK-063 LS mean - placebo LS mean, change from baseline) (10 mg): 2.3
Cognitive flexibility domain score, Difference (TAK-063 LS mean - placebo LS mean, change from baseline) (30 mg): -1.9
Composite memory domain score, Difference (TAK-063 LS mean - placebo LS mean, change from baseline) (30 mg): 7.5
Executive functioning domain score, Difference (TAK-063 LS mean - placebo LS mean, change from baseline) (30 mg): -1.2
Processing speed domain score, Difference (TAK-063 LS mean - placebo LS mean, change from baseline) (30 mg): 2.2
Psychomotor speed domain score, Difference (TAK-063 LS mean - placebo LS mean, change from baseline) (30 mg): -3.7
Reaction time domain score, Difference (TAK-063 LS mean - placebo LS mean, change from baseline) (30 mg): -2.8
Reasoning domain score, Difference (TAK-063 LS mean - placebo LS mean, change from baseline) (30 mg): -0.6
Sustained attention domain score, Difference (TAK-063 LS mean - placebo LS mean, change from baseline) (30 mg): 2.5
Verbal memory domain score, Difference (TAK-063 LS mean - placebo LS mean, change from baseline) (30 mg): 3.8
Visual memory domain score, Difference (TAK-063 LS mean - placebo LS mean, change from baseline) (30 mg): 8.3
Working memory domain score, Difference (TAK-063 LS mean - placebo LS mean, change from baseline) (30 mg): -2.2
Cognitive flexibility domain score, Difference (TAK-063 LS mean - placebo LS mean, change from baseline) (100 mg): -5.6
Composite memory domain score, Difference (TAK-063 LS mean - placebo LS mean, change from baseline) (100 mg): -13.5
Executive functioning domain score, Difference (TAK-063 LS mean - placebo LS mean, change from baseline) (100 mg): -2.2
Processing speed domain score, Difference (TAK-063 LS mean - placebo LS mean, change from baseline) (100 mg): -4.7
Psychomotor speed domain score, Difference (TAK-063 LS mean - placebo LS mean, change from baseline) (100 mg): -11.4
Reaction time domain score, Difference (TAK-063 LS mean - placebo LS mean, change from baseline) (100 mg): -3.4
Reasoning domain score, Difference (TAK-063 LS mean - placebo LS mean, change from baseline) (100 mg): 2.0
Sustained attention domain score, Difference (TAK-063 LS mean - placebo LS mean, change from baseline) (100 mg): -0.1
Verbal memory domain score, Difference (TAK-063 LS mean - placebo LS mean, change from baseline) (100 mg): -12.0
Visual memory domain score, Difference (TAK-063 LS mean - placebo LS mean, change from baseline) (100 mg): -8.3
Working memory domain score, Difference (TAK-063 LS mean - placebo LS mean, change from baseline) (100 mg): -6.2
Cognitive flexibility domain score, Difference (TAK-063 LS mean - placebo LS mean, change from baseline) (300 mg): -28.4
Composite memory domain score, Difference (TAK-063 LS mean - placebo LS mean, change from baseline) (300 mg): -19.6
Executive functioning domain score, Difference (TAK-063 LS mean - placebo LS mean, change from baseline) (300 mg): -26.4
Processing speed domain score, Difference (TAK-063 LS mean - placebo LS mean, change from baseline) (300 mg): -1.5
Psychomotor speed domain score, Difference (TAK-063 LS mean - placebo LS mean, change from baseline) (300 mg): -11.1
Reaction time domain score, Difference (TAK-063 LS mean - placebo LS mean, change from baseline) (300 mg): -4.1
Reasoning domain score, Difference (TAK-063 LS mean - placebo LS mean, change from baseline) (300 mg): -2.0
Sustained attention domain score, Difference (TAK-063 LS mean - placebo LS mean, change from baseline) (300 mg): -8.1
Verbal memory domain score, Difference (TAK-063 LS mean - placebo LS mean, change from baseline) (300 mg): -17.3
Visual memory domain score, Difference (TAK-063 LS mean - placebo LS mean, change from baseline) (300 mg): -14.0
Working memory domain score, Difference (TAK-063 LS mean - placebo LS mean, change from baseline) (300 mg): -1.4
Cognitive flexibility domain score, Difference (TAK-063 LS mean - placebo LS mean, change from baseline) (1000 mg): -15.6
Composite memory domain score, Difference (TAK-063 LS mean - placebo LS mean, change from baseline) (1000 mg): -8.6
Executive functioning domain score, Difference (TAK-063 LS mean - placebo LS mean, change from baseline) (1000 mg): -14.1
Processing speed domain score, Difference (TAK-063 LS mean - placebo LS mean, change from baseline) (1000 mg): -19.7
Psychomotor speed domain score, Difference (TAK-063 LS mean - placebo LS mean, change from baseline) (1000 mg): -22.7
Reaction time domain score, Difference (TAK-063 LS mean - placebo LS mean, change from baseline) (1000 mg): -16.5
Reasoning domain score, Difference (TAK-063 LS mean - placebo LS mean, change from baseline) (1000 mg): -0.1
Sustained attention domain score, Difference (TAK-063 LS mean - placebo LS mean, change from baseline) (1000 mg): 0.7
Verbal memory domain score, Difference (TAK-063 LS mean - placebo LS mean, change from baseline) (1000 mg): -5.8
Visual memory domain score, Difference (TAK-063 LS mean - placebo LS mean, change from baseline) (1000 mg): -6.0
Working memory domain score, Difference (TAK-063 LS mean - placebo LS mean, change from baseline) (1000 mg): -2.7
Single dose causing impairments in cognitive flexibility, executive functioning, processing and psychomotor speed, and visual memory (single dose, CNSVS): ≥ 100 mg
